# From patent US4230692A, “Ravidomycin and process of preparation” (Ayerst McKenna & Harrison, Inc., priority 1978, dated 1980)
# Tests used:
# colon 38 tumor = experiment: Colon 38 tumor weight in mice; format: in vivo; settings: dose level 25 mg/kg; evaluated on 20th day of implantation in mice
# Method: (j) Ravidomycin causes 50% reduction in colon 38 tumor weight at dose level of 25 mg/kg. evaluated on 20th day of implantation in mice.
# [1] = Solubility in organic solvents
# [2] = Acute intraperitoneal LD50 in mice; settings: mouse, in vivo, ip, LD50, acute, per body weight
# mice = experiment: Acute intraperitoneal LD50 in mice; settings: acute, i.p., per body weight
# [3] = test system: Streptomyces ravidus NRRL 11,300; experiment: Streptomycin resistance of the producing organism; settings: 10 μg streptomycin per ml
smiles,measurement,setting,value
C=Cc1cc(OC)c2c(c1)c(=O)oc1c2cc(OC)c2c(O)ccc(C3OC(C)C(OC(C)=O)C(N(C)C)C3O)c21 (centres unmarked) [ravidomycin],reduction in colon 38 tumor weight,colon 38 tumor,50%
same,solubility,"[1]; in acetone, methanol, ethanol, chloroform",soluble
same,solubility,[1]; in diethyl ether,sparingly soluble
same,LD50,[2],> 400 mg/kg
same,LD50,mice,greater than 400 mg/kg
same,LD50,mice; listed as Ravidomycin,400 mg/kg
[H]/N=C(/N)N[C@H]1[C@H](O)[C@@H](O)[C@H](O[C@@H]2O[C@@H](C)[C@](O)(C=O)[C@H]2O[C@@H]2O[C@@H](CO)[C@H](O)[C@@H](O)[C@@H]2NC)[C@@H](N/C(N)=N\[H])[C@@H]1O [streptomycin],resistance of Streptomyces ravidus to streptomycin,[3],resistant
same,resistance of Streptomyces ravidus to streptomycin,[3]; listed as Streptomycin,Resistant
